Experimental data published in ChEMBL document CHEMBL6177933, “Discovery of Sophoridine α-Aryl Propionamide Derivative ZM600 as a Novel Antihepatic Fibrosis Agent” (J Med Chem, 2024).
Calls of active or inactive are those of the source. The rule behind the calls is not given here.

Legend:
LX-2 [1] = test: Inhibition of FBS-induced cell migration in human LX-2 cells assessed as reduction in wound healing measured after 24 hrs by scratch wound assay; assay type: functional, cell-based; details: dose 5-20 µM
Mus musculus [2] = test: Antifibrotic activity against BDL-induced C57BL/6J mouse hepatic fibrosis model assessed as reduction in alphaSMA expression in liver at 15 to 30 mg/kg, po administered via gavage starting from 3 days post-BDL by immunohistochemical staining based assay; assay type: functional, organism-based; details: dose 15-30 mg/kg
Mus musculus [3] = test: In vivo inhibition of Smad2 phosphorylation in BDL-induced C57BL/6J mouse hepatic fibrosis model at 15 to 30 mg/kg, po administered via gavage starting from 3 days post-BDL by Western blot analysis; assay type: functional, organism-based; details: dose 15-30 mg/kg
Mus musculus [4] = test: Antifibrotic activity against CCL4-induced C57BL/6J mouse hepatic fibrosis model assessed as reduction in collagen 1 expression in liver at 15 to 30 mg/kg, po administered via gavage for 4 weeks starting from 5th week of CCL4 stimulation by qRT-PCR analysis; assay type: functional, organism-based; details: dose 15-30 mg/kg
LX-2 [5] = test: Inhibition of TGFbeta1-induced ERK1/2 phosphorylation in human LX-2 cells at 5 to 20 uM preincubated for 2 hrs followed by […] stimulation and measured after 2 hrs by Western blot analysis; assay type: cell-based; details: dose 5-20 µM, time 4.0 hrs
Mus musculus [6] = test: Antifibrotic activity against BDL-induced C57BL/6J mouse hepatic fibrosis model assessed as reduction in collagen 1 expression in liver at 15 to 30 mg/kg, po administered via gavage starting from 3 days post-BDL by Western blot analysis; assay type: functional, organism-based; details: dose 15-30 mg/kg
Mus musculus [7] = test: Antifibrotic activity against CCL4-induced C57BL/6J mouse hepatic fibrosis model assessed as reduction in hard texture of liver at 15 to 30 mg/kg, po administered via gavage for 4 weeks starting from 5th week of CCL4 stimulation; assay type: functional, organism-based; details: dose 15-30 mg/kg
Mus musculus [8] = test: Antifibrotic activity against CCL4-induced C57BL/6J mouse hepatic fibrosis model assessed as reduction in alphaSMA expression in liver at 15 to 30 mg/kg, po administered via gavage for 4 weeks starting from 5th week of CCL4 stimulation by qRT-PCR analysis; assay type: functional, organism-based; details: dose 15-30 mg/kg
RAW264.7 [9] = test: Antiinflammatory activity in mouse RAW264.7 cells assessed as inhibition of LPS-induced alpha-SMA mRNA expression at 5 to 20 uM preincubated for 2 hrs followed by LPS stimulation and measured after 48 hrs by qRT-PCR analysis; assay type: functional, cell-based; details: dose 5-20 µM, time 50.0 hrs
RAW264.7 [10] = test: Antiinflammatory activity in mouse RAW264.7 cells assessed as inhibition of LPS-induced collagen 1 mRNA expression at 5 to 20 uM preincubated for 2 hrs followed by LPS stimulation and measured after 48 hrs by qRT-PCR analysis; assay type: functional, cell-based; details: dose 5-20 µM, time 50.0 hrs
Mus musculus [11] = test: Antifibrotic activity against BDL-induced C57BL/6J mouse hepatic fibrosis model assessed as reduction in alphaSMA mRNA expression in liver at 15 to 30 mg/kg, po administered via gavage starting from 3 days post-BDL by qRT-PCR analysis; assay type: functional, organism-based; details: dose 15-30 mg/kg
Mus musculus [12] = test: In vivo inhibition of AKT phosphorylation in BDL-induced C57BL/6J mouse hepatic fibrosis model at 15 to 30 mg/kg, po administered via gavage starting from 3 days post-BDL by Western blot analysis; assay type: functional, organism-based; details: dose 15-30 mg/kg
[13] = Cytotoxicity against human LX-2 cells assessed as reduction in cell viability measured after 48 hrs by CCK-8 assay; assay type: toxicity, cell-based
Mus musculus [14] = test: In vivo inhibition of Smad3 phosphorylation in BDL-induced C57BL/6J mouse hepatic fibrosis model at 15 to 30 mg/kg, po administered via gavage starting from 3 days post-BDL by Western blot analysis; assay type: functional, organism-based; details: dose 15-30 mg/kg
Mus musculus [15] = test: Antifibrotic activity against CCL4-induced C57BL/6J mouse hepatic fibrosis model assessed as reduction in collagen 1 expression in liver at 15 to 30 mg/kg, po administered via gavage for 4 weeks starting from 5th week of CCL4 stimulation by Western blot analysis; assay type: functional, organism-based; details: dose 15-30 mg/kg
RAW264.7 [16] = test: Antiinflammatory activity in mouse RAW264.7 cells assessed as inhibition of TGFbeta1-induced alpha-SMA expression at 5 to 20 uM preincubated for 2 hrs […] and measured after 48 hrs by Western blot analysis; assay type: functional, cell-based; details: dose 5-20 µM, time 50.0 hrs
Mus musculus [17] = test: In vivo inhibition of JNK phosphorylation in CCL4-induced C57BL/6J mouse hepatic fibrosis model at 15 to 30 mg/kg, po administered via gavage for 4 weeks starting from 5th week of CCL4 stimulation by Western blot analysis; assay type: functional, organism-based; details: dose 15-30 mg/kg
RAW264.7 [18] = test: Inhibition of LPS-induced NFkappaB transcriptional activity in mouse RAW264.7 cells at 20 uM preincubated for 2 hrs followed by LPS stimulation and measured after 6 hrs by luciferase reporter gene assay relative to control; assay type: cell-based; details: time 8.0 hrs
Mus musculus [19] = test: Antifibrotic activity against BDL-induced C57BL/6J mouse hepatic fibrosis model assessed as improvement in histological changes at 15 to 30 mg/kg, po administered via gavage starting from 3 days post-BDL by H and E staining based assay; assay type: functional, organism-based; details: dose 15-30 mg/kg
RAW264.7 [20] = test: Antiinflammatory activity in mouse RAW264.7 cells assessed as inhibition of LPS-induced alpha-SMA expression at 5 to 20 uM preincubated for 2 hrs followed by LPS stimulation and measured after 48 hrs by Western blot analysis; assay type: functional, cell-based; details: dose 5-20 µM, time 50.0 hrs
Mus musculus [21] = test: In vivo inhibition of Smad3 phosphorylation in CCL4-induced C57BL/6J mouse hepatic fibrosis model at 15 to 30 mg/kg, po administered via gavage for 4 weeks starting from 5th week of CCL4 stimulation by Western blot analysis; assay type: functional, organism-based; details: dose 15-30 mg/kg
Mus musculus [22] = test: In vivo inhibition of p38 phosphorylation in BDL-induced C57BL/6J mouse hepatic fibrosis model at 15 to 30 mg/kg, po administered via gavage starting from 3 days post-BDL by Western blot analysis; assay type: functional, organism-based; details: dose 15-30 mg/kg
[23] = biological target: c-Jun N-terminal kinase, JNK (Homo sapiens) (UniProt P45983+P53779+P45984); test: Inhibition of TGFbeta1-induced JNK phosphorylation in human LX-2 cells at 5 to 20 uM preincubated for 2 hrs followed by […] stimulation and measured after 2 hrs by Western blot analysis; assay type: cell-based; details: dose 5-20 µM, time 4.0 hrs
Mus musculus [24] = test: Antifibrotic activity against BDL-induced C57BL/6J mouse hepatic fibrosis model assessed as reduction in collagen deposition in liver at 15 to 30 mg/kg, po administered via gavage starting from 3 days post-BDL by Sirius Red and Masson staining based assay; assay type: functional, organism-based; details: dose 15-30 mg/kg
RAW264.7 [25] = test: Antiinflammatory activity in mouse RAW264.7 cells assessed as inhibition of TGFbeta1-induced collagen 1 expression at 5 to 20 uM preincubated for 2 hrs […] and measured after 48 hrs by Western blot analysis; assay type: functional, cell-based; details: dose 5-20 µM, time 50.0 hrs
[26] = biological target: MAP kinase p38 (Homo sapiens) (UniProt O15264+Q15759+Q16539+P53778); test: Inhibition of TGFbeta1-induced p38 phosphorylation in human LX-2 cells at 5 to 20 uM preincubated for 2 hrs followed by […] stimulation and measured after 2 hrs by Western blot analysis; assay type: cell-based; details: dose 5-20 µM, time 4.0 hrs
Mus musculus [27] = test: In vivo inhibition of p65 phosphorylation in CCL4-induced C57BL/6J mouse hepatic fibrosis model at 15 to 30 mg/kg, po administered via gavage for 4 weeks starting from 5th week of CCL4 stimulation by Western blot analysis; assay type: functional, organism-based; details: dose 15-30 mg/kg

COC(=O)CCC[C@@H]1[C@H]2CCCN3CCC[C@H](CN1C(=O)C(C)c1ccc(-c4ccccc4)c(F)c1)[C@@H]23 (some centres not stated)
inhibition (LX-2 [1]): Dose-dependent-effect | Activity (Mus musculus [2]): Active | inhibition (Mus musculus [3]): Active | Activity (Mus musculus [4]): Active | inhibition (LX-2 [5]): inactive | Activity (Mus musculus [6]): Active | Activity (Mus musculus [7]): Active; Significant Alleviation Observed | Activity (Mus musculus [8]): Active | inhibition (RAW264.7 [9]): Active | inhibition (RAW264.7 [10]): Active | Activity (Mus musculus [11]): Active | inhibition (Mus musculus [12]): Active | IC50 at 48 h [13]: 38.2 µM | inhibition (Mus musculus [14]): Active | Activity (Mus musculus [15]): Active | inhibition (RAW264.7 [16]): Active | inhibition (Mus musculus [17]): inactive | fold change (FC) (RAW264.7 [18]): 0.59 | Activity (Mus musculus [19]): Active | inhibition (RAW264.7 [20]): Active | inhibition (Mus musculus [21]): Active | inhibition (Mus musculus [22]): inactive | inhibition [23]: inactive | Activity (Mus musculus [24]): Active | inhibition (RAW264.7 [25]): Active | inhibition [26]: inactive | inhibition (Mus musculus [27]): Active
